Results published in ChEMBL document CHEMBL1240321, “Cyclostreptin binds covalently to microtubule pores and lumenal taxoid binding sites” (Nat Chem Biol, 2007).
Active and inactive are the calls of the source. The calls are words filed in the database; no cut-off is given here.

Experiments:
PtK2 = assay: Displacement of Flutax-2 from microtubule in potoroo PtK2 cells at 100 uM; conditions: Potorous tridactylus
[1] = Induction of mitotic cell cycle arrest in potoroo PtK2 cells assessed as accumulation at 100 nM after 24 hrs by flow cytometry (Rvb= 26.3%)
A549 = assay: Cytotoxicity against human A549 cells; format: functional, cell-based

With `CC1=C[C@H]2[C@@H](O)[C@H](C)[C@@H](O)[C@@H]2[C@H]2[C@@H]3C4=C5O[C@](C)(CC[C@@H](OC4=O)[C@H]5C)[C@@H]3C[C@@H]12` [CYCLOSTREPTIN] the Activity (PtK2) was “Active”, the Activity [1] was 65% and the IC50 (A549) was 0.0455 µM.
